The test deals with T1, human NEP (Homo sapiens, UniProt P08473).
T1 construct: purchased R&D Systems, Minneapolis, Minn; 1182-ZN
Kind of test: In vitro enzyme inhibition assay at human NEP (Assay 1). Particulars: recombinant enzyme, fluorogenic peptide substrate, 37° C. It is filed as biochemical. In a few lines: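 Recombinant enzyme preincubated with compound 30 min at 37 °C, then 10 μM Mca-D-Arg-Arg-Leu-Dap-(Dnp)-OH added in 50 mM HEPES pH 7.5, 100 mM NaCl, 0.01% Tween-20, 10 μM ZnSO4; stopped after 20 min with acetic acid. Fluorescence read at 320/405 nm; Ki from nonlinear fit of v=v0/[1+(I/K′)], reported as pKi.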

Bounds are passed on as bounds.

T1 sequence (P08473 whole entry): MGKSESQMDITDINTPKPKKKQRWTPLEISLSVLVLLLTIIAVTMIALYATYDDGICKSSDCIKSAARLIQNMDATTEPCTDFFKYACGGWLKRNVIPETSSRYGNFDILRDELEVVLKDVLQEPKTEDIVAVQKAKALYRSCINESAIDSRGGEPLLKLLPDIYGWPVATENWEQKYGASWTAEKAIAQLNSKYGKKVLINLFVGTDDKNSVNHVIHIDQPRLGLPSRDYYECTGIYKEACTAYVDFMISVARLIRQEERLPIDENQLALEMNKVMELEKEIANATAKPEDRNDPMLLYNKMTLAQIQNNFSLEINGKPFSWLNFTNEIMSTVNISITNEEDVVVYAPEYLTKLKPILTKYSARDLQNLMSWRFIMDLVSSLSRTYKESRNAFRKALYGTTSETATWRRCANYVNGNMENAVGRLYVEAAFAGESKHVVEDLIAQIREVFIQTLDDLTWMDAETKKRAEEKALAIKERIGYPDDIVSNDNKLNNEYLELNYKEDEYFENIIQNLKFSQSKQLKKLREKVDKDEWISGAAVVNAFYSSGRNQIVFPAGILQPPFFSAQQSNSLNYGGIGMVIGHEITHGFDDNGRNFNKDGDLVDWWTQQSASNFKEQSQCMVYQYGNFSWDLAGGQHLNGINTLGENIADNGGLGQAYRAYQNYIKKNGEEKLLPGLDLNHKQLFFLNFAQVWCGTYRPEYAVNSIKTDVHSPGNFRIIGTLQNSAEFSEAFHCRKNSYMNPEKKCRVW

In the case of `O=C(NN(Cc1ccc(-c2cc(Cl)ccc2F)cc1)C[C@@H](O)C(=O)O)c1cc(O)n(-c2ccccn2)n1` [Example 8-51, (R)-3-[N-(5′-Chloro-2′-fluoro-biphenyl-4-ylmethyl)-N′-(5-hydroxy-1-pyridin-2-yl-1H-pyrazole-3-carbonyl)-hydrazino]-2-hydroxy-propionic acid], the Ki (commonly the dissociation constant of the complex between target and ligand, obtained from inhibition or displacement) was 1.26 to 10 nM.

Regarding `O=C(NN(Cc1ccc(-c2cc(Cl)ccc2F)cc1)C[C@@H](O)C(=O)O)c1cc(O)n(-c2ccccc2F)n1` [Example 8-52, (R)-3-{N-(5′-Chloro-2′-fluoro-biphenyl-4-ylmethyl)-N′-[1-(2-fluoro-phenyl)-5-hydroxy-1H-pyrazole-3-carbonyl]-hydrazino}-2-hydroxy-propionic acid], the Ki was 1.26 to 10 nM.

With `O=C(O)Cn1nc(C(=O)NN(Cc2ccc(-c3cc(Cl)ccc3F)cc2)C[C@@H](O)C(=O)O)cc1C1CC1` [Example 8-53, (R)-3-[N′-(1-Carboxymethyl-5-cyclopropyl-1H-pyrazole-3-carbonyl)-N-(5′-chloro-2′-fluoro-biphenyl-4-ylmethyl)-hydrazino]-2-hydroxy-propionic acid], the Ki was 1.26 to 10 nM.

For the molecule `CC(C)c1cc(C(=O)NN(Cc2ccc(-c3cc(Cl)ccc3F)cc2)C[C@@H](O)C(=O)O)nn1CC(=O)O` [Example 8-54, (R)-3-[N′-(1-Carboxymethyl-5-isopropyl-1H-pyrazole-3-carbonyl)-N-(5′-chloro-2′-fluoro-biphenyl-4-ylmethyl)-hydrazino]-2-hydroxy-propionic acid], the Ki was 1.26 to 10 nM.

With `CCCCc1cc(C(=O)NN(Cc2ccc(-c3cc(Cl)ccc3F)cc2)C[C@@H](O)C(=O)O)nn1CC(=O)O` [Example 8-55, (R)-3-[N′-(5-Butyl-1-carboxymethyl-1H-pyrazole-3-carbonyl)-N-(5′-chloro-2′-fluoro-biphenyl-4-ylmethyl)-hydrazino]-2-hydroxy-propionic acid], the Ki is 1.26 to 10 nM.

On to `CC(C)(O)c1cc(C(=O)NN(Cc2ccc(-c3cc(Cl)ccc3F)cc2)C[C@@H](O)C(=O)O)nn1CC(=O)O` [Example 8-56, (R)-3-[N′-[1-Carboxymethyl-5-(1-hydroxy-1-methyl-ethyl)-1H-pyrazole-3-carbonyl]-N-(5′-chloro-2′-fluoro-biphenyl-4-ylmethyl)-hydrazino]-2-hydroxy-propionic acid], for which the Ki was 1.26 to 10 nM.

Turning to `CCOc1cc(C(=O)NN(Cc2ccc(-c3cc(Cl)ccc3F)cc2)C[C@@H](O)C(=O)O)n[nH]1` [Example 8-57, (R)-3-[N-(5′-Chloro-2′-fluoro-biphenyl-4-ylmethyl)-N′-(5-ethoxy-1H-pyrazole-3-carbonyl)-hydrazino]-2-hydroxy-propionic acid], the Ki was 1.26 to 10 nM.

For `O=C(NN(Cc1ccc(-c2cc(Cl)ccc2F)cc1)C[C@@H](O)C(=O)O)c1ccc(=O)[nH]n1` [Example 8-58, (R)-3-[N-(5′-Chloro-2′-fluoro-biphenyl-4-ylmethyl)-N′-(6-oxo-1,6-dihydro-pyridazine-3-carbonyl)-hydrazino]-2-hydroxy-propionic acid], the Ki was no more than 1 nM.

Turning to `Cc1ccc(Cl)cc1-c1ccc(CN(C[C@@H](O)C(=O)O)NC(=O)c2nnn[nH]2)cc1` [Example 8-59, (R)-3-[N-(5′-Chloro-2′-methyl-biphenyl-4-ylmethyl)-N′-(1H-tetrazole-5-carbonyl)-hydrazino]-2-hydroxy-propionic acid], the inhibitory constant (Ki) was no more than 1 nM.

Take `O=C(NN(Cc1ccc(-c2cc(Cl)ccc2Cl)cc1)C[C@@H](O)C(=O)O)c1nnn[nH]1` [Example 8-60, (R)-3-[N-(2′,5′-Dichloro-biphenyl-4-ylmethyl)-N′-(1H-tetrazole-5-carbonyl)-hydrazino]-2-hydroxy-propionic acid]: the Ki was no more than 1 nM.

As to `O=C(NN(Cc1ccc(-c2cc(Cl)ccc2F)cc1)C[C@@H](O)C(=O)O)c1nn(-c2ccccc2)c(=O)[nH]1` [Example 8-64, (R)-3-[N-(5′-Chloro-2′-fluoro-biphenyl-4-ylmethyl)-N′-(5-oxo-1-phenyl-4,5-dihydro-1H-[1,2,4]triazole-3-carbonyl)-hydrazino]-2-hydroxy-propionic acid], the Ki is no more than 1 nM.

For `O=C(NN(Cc1ccc(-c2cc(Cl)ccc2F)cc1)C[C@@H](O)C(=O)O)c1nn(-c2ccc(F)cc2)c(=O)[nH]1` [Example 8-65, (R)-3-{N-(5′-Chloro-2′-fluoro-biphenyl-4-ylmethyl)-N′-[1-(4-fluoro-phenyl)-5-oxo-4,5-dihydro-1H-[1,2,4]triazole-3-carbonyl]-hydrazino}-2-hydroxy-propionic acid], the Ki was 1.26 to 10 nM.

Consider `O=C(NN(Cc1ccc(-c2cc(Cl)ccc2F)cc1)C[C@@H](O)C(=O)O)c1nn(-c2ccccc2Cl)c(=O)[nH]1` [Example 8-66, (R)-3-{N-(5′-Chloro-2′-fluoro-biphenyl-4-ylmethyl)-N′-[1-(2-chloro-phenyl)-5-oxo-4,5-dihydro-1H-[1,2,4]triazole-3-carbonyl]-hydrazino}-2-hydroxy-propionic acid], for which the Ki is 1.26 to 10 nM.

As for `O=C(NN(Cc1ccc(-c2cc(Cl)ccc2F)cc1)C[C@@H](O)C(=O)O)c1nn(-c2cccc(Cl)c2)c(=O)[nH]1` [Example 8-67, (R)-3-{N-(5′-Chloro-2′-fluoro-biphenyl-4-ylmethyl)-N′-[1-(3-chloro-phenyl)-5-oxo-4,5-dihydro-1H-[1,2,4]triazole-3-carbonyl]-hydrazino}-2-hydroxy-propionic acid], the Ki is no more than 1 nM.

As for `Cc1cc(C(=O)NN(Cc2ccc(-c3cc(Cl)ccc3F)cc2)C[C@@H](O)C(=O)O)cc2[nH]nnc12` [Example 8-68, (R)-3-[N-(5′-Chloro-2′-fluoro-biphenyl-4-ylmethyl)-N′-(7-methyl-3H-benzotriazole-5-carbonyl)-hydrazino]-2-hydroxy-propionic acid], the Ki was 1.26 to 10 nM.

Turning to `O=C(NN(Cc1ccc(-c2cc(Cl)ccc2F)cc1)C[C@@H](O)C(=O)O)c1cc(Cl)c2nn[nH]c2c1` [Example 8-69, (R)-3-[N′-(7-Chloro-3H-benzotriazole-5-carbonyl)-N-(5′-chloro-2′-fluoro-biphenyl-4-ylmethyl)-hydrazino]-2-hydroxy-propionic acid], the inhibition constant Ki is no more than 1 nM.

Regarding `O=C(NN(Cc1ccc(-c2cc(Cl)ccc2F)cc1)C[C@@H](O)C(=O)O)c1cc(F)c2nn[nH]c2c1` [Example 8-73, (R)-3-[N-(5′-Chloro-2′-fluoro-biphenyl-4-ylmethyl)-N′-(7-fluoro-3H-benzotriazole-5-carbonyl)-hydrazino]-2-hydroxy-propionic acid], the Ki was no more than 1 nM.

`O=C(NN(Cc1ccc(-c2cc(Cl)ccc2F)cc1)C[C@@H](O)C(=O)O)c1c[nH]c(=O)o1` [Example 8-74, (R)-3-[N-(5′-Chloro-2′-fluoro-biphenyl-4-ylmethyl)-N′-(2-oxo-2,3-dihydro-oxazole-5-carbonyl)-hydrazino]-2-hydroxy-propionic acid]: the Ki is no more than 1 nM.

As to `O=C(NN(Cc1ccc(-c2cc(Cl)ccc2F)cc1)C[C@@H](O)C(=O)O)c1cnn[nH]1` [Example 8-75, (R)-3-[N-(5′-Chloro-2′-fluoro-biphenyl-4-ylmethyl)-N′-(3H-[1,2,3]triazole-4-carbonyl)-hydrazino]-2-hydroxy-propionic acid], the Ki is no more than 1 nM.

As to `O=C(NN(Cc1ccc(-c2cc(Cl)ccc2F)cc1)C[C@@H](O)C(=O)O)c1cn(O)nn1` [Example 8-76, (R)-3-[N-(5′-Chloro-2′-fluoro-biphenyl-4-ylmethyl)-N′-(1-hydroxy-1H-[1,2,3]triazole-4-carbonyl)-hydrazino]-2-hydroxy-propionic acid], the Ki is no more than 1 nM.
